Patent US5591741A, “Fungicidal spiroheterocyclic derivatives” (American Cyanamid Company, priority 1993, dated 1997)

Tests used:
Venturia inaequalis = assay: Activity against apple scab in-vitro (VII); assay type: cell-based; settings: 10 ppm, 10 days, 20° C., mycelial growth
How it was run: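 V. inaequalis propagules (5×10^4/ml, malt agar-grown) were exposed in half-strength PDB to 10 ppm final test compound delivered in acetone. Growth was scored after incubation for 10 days at 20° C, as a rating relative to untreated or diluent-sprayed controls.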

[1] = test system: Erysiphe graminis f.sp. hordei; assay: Direct protectant activity against barley powdery mildew (EGP); assay type: in vivo; settings: direct protectant foliar spray, 8 days
How it was run: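 Rating reflects percentage of leaf area with sporulation compared with untreated or diluent-sprayed controls. Protectant spray was applied to single-leaf barley (cv Golden Promise) 24 h before conidia inoculation. Plants were kept at 18 °C and 40% RH throughout, with 8 days of disease development.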

Phytophthora infestans = assay type: in vivo; settings: tomato, direct protectant foliar spray
Alternaria solani = assay: Activity against tomato early blight (AS); assay type: in vivo; settings: Table VI; tomato seedlings, contact prophylactic foliar spray, 4 days
How it was run: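 Plants were challenged with A. solani conidia (10^4 spores/ml) 24 h after a protective foliar spray of compound in 50:50 acetone/water plus 0.04% Tween 20. Held humid at 21° C for 4 days, then percent leaf area with lesions was scored as a rating relative to controls.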

Plasmopara viticola = assay: Antisporulant activity against vine downy mildew (PVA); assay type: in vivo; settings: vine leaves, antisporulant foliar spray, 600 ppm, 750 l/ha
How it was run: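 Cabernet Sauvignon vines (~8 cm) inoculated on lower leaf surfaces with 5×10^4 zoosporangia/ml, held 24 h at 21° C high humidity then 24 h glasshouse. Infected leaves sprayed underside with 600 ppm compound in 1:1 water/acetone, 0.04% Tween 20, 750 l/ha; 96 h glasshouse, 24 h humidity. Sporulating leaf area rated versus control.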

Pyricularia oryzae = assay type: in vivo; settings: rice seedlings, direct therapeutic foliar spray, 600 ppm, 4-5 days
Botrytis cinerea = assay: Direct protectant activity against broad bean grey mould (BCB); assay type: in vivo; settings: direct protectant foliar spray, 600 ppm, 4 days
How it was run: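 Protectant foliar test: lesion coverage assessed 4 days after inoculation and rated relative to untreated or diluent-sprayed plants. Compound applied at 600 ppm to cv The Sutton leaves 24 h before 10^6 conidia/ml suspension; incubation at 22 °C in high humidity.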

Rhizoctonia solani = assay: Activity against Rhizoctonia in-vitro (RSI); assay type: cell-based; settings: 10 ppm, 10 days, 20° C., mycelial growth
How it was run: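 Compound at a final 10 ppm (acetone vehicle) in half-strength PDB, inoculated with 5×10^4 fragments/ml of shaken-culture R. solani mycelium. After incubation at 20° C for 10 days, growth scored as a rating versus untreated or diluent-treated controls.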

[2] = test system: Erysiphe graminis f.sp. hordei; assay: Activity against barley powdery mildew, direct therapeutic (EGT); assay type: in vivo; settings: direct therapeutic foliar spray, 600 ppm, up to 7 days
How it was run: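 A curative spray at 600 ppm was applied to single-leaf Golden Promise barley inoculated with powdery mildew conidia the previous day. After up to 7 days at 18 °C and 40% humidity, disease control was rated from percent leaf area sporulating relative to untreated or diluent-sprayed controls.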

Leptosphaeria nodorum = assay: Activity against wheat leafspot (LN); assay type: in vivo; settings: direct therapeutic foliar spray, 600 ppm, 6-8 days
How it was run: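 Therapeutic foliar spray: compound at 600 ppm applied to single-leaf wheat (cv Norman) 24 h after inoculation with 1.5×10^6 conidia/ml. Disease control scored after 6-8 days at 22° C and 70% humidity as lesions per leaf versus untreated or diluent-sprayed controls.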

[3] = test system: Pseudocercosporella herpotrichoides; assay: Activity against wheat eyespot in-vitro (PHI); assay type: cell-based; settings: 10 ppm, 10 days, 20° C., mycelial growth
How it was run: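 Mycelial growth was scored after 10 days at 20 °C against untreated or diluent controls. The broth was half-strength potato dextrose, holding 10 ppm test compound (from acetone) and 5×10^4 fragments/ml of the eyespot fungus.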

SMILES | disease control rating VII (Venturia inaequalis) | disease control rating EGP [1] | disease control rating PIP (Phytophthora infestans) | disease control rating AS (Alternaria solani) | disease control rating PVA (Plasmopara viticola) | disease control rating PO (Pyricularia oryzae) | disease control rating BCB (Botrytis cinerea) | disease control rating RSI (Rhizoctonia solani) | disease control rating EGT [2] | disease control rating LN (Leptosphaeria nodorum) | disease control rating PHI [3]
CC(C)(C)C1CCC2(CC1)CC(NC1CCC3CCCCC3C1)CO2 (stereo not drawn) [Compound 138] | 0 (less than 50% disease control) | 0 (less than 50% disease control) | 2 (greater than 80% disease control) | 0 (less than 50% disease control) | 0 (less than 50% disease control) | 0 (less than 50% disease control) | 0 (less than 50% disease control) | 0 (less than 50% disease control) | 0 (less than 50% disease control) | 0 (less than 50% disease control) | 0 (less than 50% disease control)
CC(C)CNC1COC2(CCC(C(C)(C)C3CCCCC3)CC2)C1 (stereo not drawn) [Compound 139] | 2 (greater than 80% disease control) | 2 (greater than 80% disease control) | 0 (less than 50% disease control) | 0 (less than 50% disease control) | 0 (less than 50% disease control) | 0 (less than 50% disease control) | 0 (less than 50% disease control) | 0 (less than 50% disease control) | 2 (greater than 80% disease control) | 1 (about 50-80% disease control) | 2 (greater than 80% disease control)
CCCCCCN(C)C1COC2(CCC(C(C)(C)C3CCCCC3)CC2)C1 (stereo not drawn) [Compound 140] | 2 (greater than 80% disease control) | 2 (greater than 80% disease control) | 0 (less than 50% disease control) | 0 (less than 50% disease control) | 0 (less than 50% disease control) | 0 (less than 50% disease control) | 0 (less than 50% disease control) | 2 (greater than 80% disease control) | 2 (greater than 80% disease control) | 1 (about 50-80% disease control) | 2 (greater than 80% disease control)
CC1CCN(C2COC3(CCC(C(C)(C)C4CCCCC4)CC3)C2)CC1 (stereo not drawn) [Compound 141] | 2 (greater than 80% disease control) | 2 (greater than 80% disease control) | 0 (less than 50% disease control) | 0 (less than 50% disease control) | 0 (less than 50% disease control) | 0 (less than 50% disease control) | 0 (less than 50% disease control) | 2 (greater than 80% disease control) | 2 (greater than 80% disease control) | 1 (about 50-80% disease control) | 2 (greater than 80% disease control)
CC(C)(C1CCCCC1)C1CCC2(CC1)CC(NC1CCCCC1)CO2 (stereo not drawn) [Compound 142] | 2 (greater than 80% disease control) | 2 (greater than 80% disease control) | 1 (about 50-80% disease control) | 0 (less than 50% disease control) | 0 (less than 50% disease control) | 0 (less than 50% disease control) | 0 (less than 50% disease control) | 2 (greater than 80% disease control) | 2 (greater than 80% disease control) | 0 (less than 50% disease control) | 2 (greater than 80% disease control)
CC(C)CN(CC(C)C)C1COC2(CCC(C(C)(C)C)CC2)C1 (stereo not drawn) [Compound 143] | 0 (less than 50% disease control) | 2 (greater than 80% disease control) | 0 (less than 50% disease control) | 0 (less than 50% disease control) | 0 (less than 50% disease control) | 0 (less than 50% disease control) | 0 (less than 50% disease control) | 0 (less than 50% disease control) | 2 (greater than 80% disease control) | 0 (less than 50% disease control) | 0 (less than 50% disease control)
CC(C)(C)C1CCC2(CC1)CC(CN)CO2 (stereo not drawn) [Compound 181, 8-t-Butyl-3-aminomethyl-1-oxaspiro(4,5)decane] | 0 (less than 50% disease control) | 2 (greater than 80% disease control) | 2 (greater than 80% disease control) | 0 (less than 50% disease control) | 0 (less than 50% disease control) | 0 (less than 50% disease control) | 0 (less than 50% disease control) | 0 (less than 50% disease control) | 2 (greater than 80% disease control) | 0 (less than 50% disease control) | 0 (less than 50% disease control)
CC(C)(C)C1CCC2(CC1)CC(CNC1CCCCC1)CO2 (stereo not drawn) [Compound 182, 8-t-Butyl-3-cyclohexylaminomethyl-1-oxaspiro(4,5)decane] | 2 (greater than 80% disease control) | 2 (greater than 80% disease control) | 0 (less than 50% disease control) | 0 (less than 50% disease control) | 0 (less than 50% disease control) | 0 (less than 50% disease control) | 1 (about 50-80% disease control) | 2 (greater than 80% disease control) | 2 (greater than 80% disease control) | 1 (about 50-80% disease control) | 1 (about 50-80% disease control)
CCCCCCCCNCC1COC2(CCC(C(C)(C)C)CC2)C1 (stereo not drawn) [Compound 183, 8-t-butyl-3-n-octylaminomethyl-1-oxaspiro(4,5)-decane] | 2 (greater than 80% disease control) | 2 (greater than 80% disease control) | 1 (about 50-80% disease control) | 0 (less than 50% disease control) | 0 (less than 50% disease control) | 0 (less than 50% disease control) | 0 (less than 50% disease control) | 2 (greater than 80% disease control) | 2 (greater than 80% disease control) | 0 (less than 50% disease control) | 1 (about 50-80% disease control)
